These results are taken from patent publication US20230151057A1, “LACTIC ACID BACTERIA GROWTH PROMOTER” (Asahi Group Holdings, Ltd., priority 2020, published 2023).

What all share (format): cell-based
Experiment [1] relates to Lactobacillus amylovorus (FERM BP-11255). Put plainly: Growth-promoting effect on Lactobacillus amylovorus in modified MRS medium (particle count). Particulars: Example 3, peptide 0.25 mg/mL, 37° C., 18 hours; for Rate of increase: control = 100%. An excerpt: Nitrogen sources in MRS medium were reduced to find a medium composition that achieves a total bacterial count of about 1.0×10^8 cell/mL to 1.0×10^9 cell/mL after culturing of each of the six bacterial strains Lactobacillus gasseri (FERNM BP-11331), Lactobacillus acidophilus (FERM BP-4981), Lactobacillus amylovorus (FERM BP-11255), Lactobacillus curvatus (NITE P-02033), Lactobacillus plantarum, and Lactobacillus brevis. This composition, named “modified MRS medium”, was used for the evaluation. Here, for the composition of the MRS medium, a composition described in a medium catalog provided by BD (Becton, Dickinson and Company) was used as a reference. The compositions of the MRS medium and the modified MRS medium are as follows. By chemical synthesis, 28 kinds of candidate peptides having the sequences shown below were provided. Each candidate peptide was added to the modified MRS medium at 0.25 mg/mL to provide a medium to be evaluated. The lactic acid bacterium Lactobacillus gasseri was inoculated at 1.0×10^7 cells/mL to the provided medium to be evaluated, and culture was carried out at a temperature of 37° C. for a culture period of 18 hours. The resulting culture was collected, and subjected to measurement of the particle concentration (particles/mL) as a characteristic value that can be used as an index of the bacterial cell growth, using a particle count analyzer (CDA-1000, Sysmex). The rate of increase (%) was calculated relative to a control value obtained using a medium to which no peptide was added, which was taken as 100%. For eight kinds of candidate peptides having the sequences shown below, the growth-promoting effect on a lactic acid bacterium was evaluated in the same manner as in Example 1 except that Lactobacillus amylovorus was used instead of Lactobacillus gasseri.

Experiment [2] deals with Lactobacillus brevis. Put plainly: Growth-promoting effect on Lactobacillus brevis in modified MRS medium (particle count). The following applies: Example 6, peptide 0.25 mg/mL, 37° C., 18 hours; for Rate of increase: control = 100%. The source says:
Nitrogen sources in MRS medium were reduced to find a medium composition that achieves a total bacterial count of about 1.0×10^8 cell/mL to 1.0×10^9 cell/mL after culturing of each of the six bacterial strains Lactobacillus gasseri (FERNM BP-11331), Lactobacillus acidophilus (FERM BP-4981), Lactobacillus amylovorus (FERM BP-11255), Lactobacillus curvatus (NITE P-02033), Lactobacillus plantarum, and Lactobacillus brevis. This composition, named “modified MRS medium”, was used for the evaluation. Here, for the composition of the MRS medium, a composition described in a medium catalog provided by BD (Becton, Dickinson and Company) was used as a reference. The compositions of the MRS medium and the modified MRS medium are as follows. By chemical synthesis, 28 kinds of candidate peptides having the sequences shown below were provided. Each candidate peptide was added to the modified MRS medium at 0.25 mg/mL to provide a medium to be evaluated. The lactic acid bacterium Lactobacillus gasseri was inoculated at 1.0×10^7 cells/mL to the provided medium to be evaluated, and culture was carried out at a temperature of 37° C. for a culture period of 18 hours. The resulting culture was collected, and subjected to measurement of the particle concentration (particles/mL) as a characteristic value that can be used as an index of the bacterial cell growth, using a particle count analyzer (CDA-1000, Sysmex). The rate of increase (%) was calculated relative to a control value obtained using a medium to which no peptide was added, which was taken as 100%. For eight kinds of candidate peptides having the sequences shown below, the growth-promoting effect on a lactic acid bacterium was evaluated in the same manner as in Example 1 except that Lactobacillus brevis was used instead of Lactobacillus gasseri.

The test system of experiment [3] is Lactobacillus acidophilus (FERM BP-4981). Put plainly: Growth-promoting effect on Lactobacillus acidophilus in modified MRS medium (particle count). Particulars: Example 2, peptide 0.25 mg/mL, 37° C., 18 hours; for Rate of increase: control = 100%. An excerpt: Nitrogen sources in MRS medium were reduced to find a medium composition that achieves a total bacterial count of about 1.0×10^8 cell/mL to 1.0×10^9 cell/mL after culturing of each of the six bacterial strains Lactobacillus gasseri (FERNM BP-11331), Lactobacillus acidophilus (FERM BP-4981), Lactobacillus amylovorus (FERM BP-11255), Lactobacillus curvatus (NITE P-02033), Lactobacillus plantarum, and Lactobacillus brevis. This composition, named “modified MRS medium”, was used for the evaluation. Here, for the composition of the MRS medium, a composition described in a medium catalog provided by BD (Becton, Dickinson and Company) was used as a reference. The compositions of the MRS medium and the modified MRS medium are as follows. By chemical synthesis, 28 kinds of candidate peptides having the sequences shown below were provided. Each candidate peptide was added to the modified MRS medium at 0.25 mg/mL to provide a medium to be evaluated. The lactic acid bacterium Lactobacillus gasseri was inoculated at 1.0×10^7 cells/mL to the provided medium to be evaluated, and culture was carried out at a temperature of 37° C. for a culture period of 18 hours. The resulting culture was collected, and subjected to measurement of the particle concentration (particles/mL) as a characteristic value that can be used as an index of the bacterial cell growth, using a particle count analyzer (CDA-1000, Sysmex). The rate of increase (%) was calculated relative to a control value obtained using a medium to which no peptide was added, which was taken as 100%. For eight kinds of candidate peptides having the sequences shown below, the growth-promoting effect on a lactic acid bacterium was evaluated in the same manner as in Example 1 except that Lactobacillus acidophilus was used instead of Lactobacillus gasseri.

Ends that are not written are not given here.

AGPQTF: the Particle concentration in experiment [1] came to 1.93e+08 mL⁻¹; in experiment [2], 1.16e+09 mL⁻¹; in experiment [3] it was 1.02e+08 mL⁻¹. For the same substance, the Rate of increase is listed as 118% in experiment [1], 106% in experiment [2] and 105% in experiment [3].

Turning to “APKPDYPIA (listed as Saccharomyces cerevisiae) [Ala-Pro-Lys-Pro-Asp-Tyr-Pro-Ile-Ala]”, the Particle concentration came to 1.83e+08 mL⁻¹ in experiment [1], 1.12e+09 mL⁻¹ in experiment [2] and 9.73e+07 mL⁻¹ in experiment [3]. The Rate of increase is given as 112% in experiment [1], 103% in experiment [2] and 100% in experiment [3].

Take Leu-Phe [LF]: the Particle concentration in experiment [1] is 2.08e+08 mL⁻¹; in experiment [2], 1.24e+09 mL⁻¹; in experiment [3] it was 8.75e+07 mL⁻¹. The Rate of increase in experiment [1] stood at 109%; in experiment [2], 114%; in experiment [3], 121%.

In the case of “Leu-Pro-Trp-Gly (LPWG; listed as Saccharomyces cerevisiae)”, the Particle concentration in experiment [1] turned out to be 2.13e+08 mL⁻¹; in experiment [2], 1.18e+09 mL⁻¹; in experiment [3], 1.03e+08 mL⁻¹. In addition, the figures for the Rate of increase in experiment [1], in experiment [2] and in experiment [3] were 111%, 108% and 113%, respectively.

“Pro-Ser-Val-Phe (PSVF; listed as Saccharomyces cerevisiae)”: the figures for the Particle concentration in experiment [1], in experiment [2] and in experiment [3] were 1.92e+08 mL⁻¹, 1.16e+09 mL⁻¹ and 1e+08 mL⁻¹, respectively. Also, the results for the Rate of increase in experiment [1], in experiment [2] and in experiment [3] were 118%, 106% and 103%, respectively.

With Pro-Val-Phe [PVF], the Particle concentration in experiment [1] came to 2.07e+08 mL⁻¹; in experiment [2], 1.17e+09 mL⁻¹; in experiment [3], 1.01e+08 mL⁻¹. Also, the Rate of increase was determined as 108% in experiment [1], 107% in experiment [2] and 111% in experiment [3].

Consider Pro-Val-Tyr [PVY], for which the Particle concentration in experiment [1] is 1.98e+08 mL⁻¹; in experiment [2], 1.17e+09 mL⁻¹; in experiment [3] it was 1.1e+08 mL⁻¹. In addition, the results for the Rate of increase in experiment [1], in experiment [2] and in experiment [3] were 121%, 107% and 113%, respectively.

On to “Val-Pro-Ala-Phe (VPAF; listed as Saccharomyces cerevisiae)”, for which the Particle concentration in experiment [1] worked out at 2.07e+08 mL⁻¹; in experiment [2], 1.16e+09 mL⁻¹; in experiment [3], 1.04e+08 mL⁻¹. Besides, the Rate of increase is 108% in experiment [1], 106% in experiment [2] and 113% in experiment [3].
